From article PMC7433010, “Exploration of multi‐target effects of 3‐benzoyl‐5‐hydroxychromen‐2‐one in Alzheimer’s disease cell and mouse models” (Aging Cell, 2020)
Like-named read-outs stand apart in the source and are kept apart here.

Key:
[1] = MTT cytotoxicity in uninduced ∆K280 TauRD‐DsRed 293 cells; assay type: cell-based; conditions: human
Description: (§1) Licochalcone A and five derivative LM compounds were tested (Figure 1a). All six compounds were soluble up to 100 μM in a cell culture medium (Figure S1a). Based on molecular weight (MW), hydrogen bond donors (HBD), hydrogen bond acceptors (HBA), and calculated octanol/water partition coefficient (cLogP), all six compounds meet Lipinski's criteria in predicting oral bioavailability (Lipinski, Lombardo, Dominy, & Feeney, 1997) (Figure S1b). […] To choose the optimal treatment dose used for the best efficacy of the candidate compounds, a specific type of biphasic dose response of a compound called hormesis should take into consideration. Evidence has shown that a wide range of pharmaceutical products display a hermetic dose‐response feature, characterized by a low‐dose stimulation and a high‐dose inhibition (Calabrese et al., 2018; Concetta Scuto et al., 2019; Pilipenko et al., 2019). Therefore, we tested the compounds at a range of doses to find the optimal dose for the best therapeutic effect and the least cytotoxicity. Firstly, MTT assay was performed using uninduced ∆K280 TauRD‐DsRed 293 and retinoic acid‐differentiated SH‐SY5Y cells following treatment with the test compounds (0.1–10 μM) for 3 (for 293 cells) or 7 (for SH‐SY5Ycells) days. […] Congo red is an amyloidogenic dye known to reduce Aβ neurotoxicity (Lorenzo & Yankner, 1994).
(§2) Licochalcone A was purchased from Sigma-Aldrich, St. Louis, MO, USA. In-house LM compounds were synthesized and characterized by NMR spectrum as described (Lee et al., 2012, 2015, 2018). Tet-On ∆K280 TauRD-DsRed 293 and SH-SY5Y cells (Chang et al., 2016) were cultured in Dulbecco’s modified Eagles medium (DMEM) (293) or DMEM-F12 (SH-SY5Y) containing 10% fetal bovine serum (Invitrogen, Carlsbad, CA, USA), 5 μg/ml of blasticidin, and 100 μg/ml of hygromycin (InvivoGen, San Diego, CA, USA). Compound cytotoxicity was assessed by colorimetric assay for measuring cell metabolic activity. Briefly, 5 × 10^4 cells were plated (48-well plates), grown for 20 h, and treated with the test compounds ([…]). […], 20 µl of 3-(4,5-dimethylthiazol-2-yl)-2,5-diphenyltetrazolium bromide (MTT, 5 mg/ml in PBS; Sigma-Aldrich) was added to the cells and incubated at 37°C for 3 h. Then 200 µl of lysis buffer (10% Triton X-100, 0.1 N HCl, 18% isopropanol) was added and the absorbance of the insoluble product at OD 570 nm was measured by a microplate reader (FLx800 fluorescence microplate reader, Bio-Tek, Winooski, VT, USA). The half-maximal inhibitory concentration (IC50) was calculated using the interpolation method.
(§3) Figure S1. Test compounds. (a) Solubility (in cell culture medium) of test compounds. (b) Molecular weight (MW), hydrogen bond donor (HBD), hydrogen bond acceptor (HBA), calculated octanol-water partition coefficient (cLogP), polar surface area (PSA), and predicted blood-brain barrier (BBB) score of test compounds. (c) Cytotoxicity of test compounds against ∆K280 TauRD-DsRed 293 and SH-SY5Y cells using the MTT assay. Uninduced 293 cells were plated on day 1 and treated with 0.1–10 μM test compounds on day 2. Cell viability was measured on day 5 (n = 3). In addition, uninduced SH-SY5Y cells were seeded with all trans retinoic acid (RA; 10 µM) on day 1 and treated with 0.1–10 μM test compounds on day 2. Cell viability was measured on day 9 (n = 3). To normalize, the relative viability in compound untreated cells was set at 100%. IC50 values are listed.

[2] = MTT cytotoxicity in uninduced retinoic acid‐differentiated SH‐SY5Y cells; assay type: cell-based; conditions: human
Description: as §1, §2, §3

[3] = molecular target: T1, His‐tagged ∆K280 TauRD protein (Homo sapiens, UniProt P10636, DEL597-597); assay: Thioflavin T binding assay for TauRD aggregation; assay type: biochemical; conditions: 10 µM, 2 days at 37°C; without compound 16,856 AU
T1 construct: containing residues 244–372 of the full‐length 4R2N Tau441; added start Met (ATG codon in forward primer) (N); made in house; host or cells: E. coli BL21(DE3)pLysS
Source text: Although known to reduce Aβ neurotoxicity (Lorenzo & Yankner, 1994), congo red was also reported as an agonist to drive aggregation within 293 cells expressing full‐length tau isoform htau40 (Bandyopadhyay, Li, Yin, & Kuret, 2007). Thus, we further examined the effects of congo red and tested chalcones on Tau misfolding using prokaryotic His‐tagged wild‐type (WT) and ∆K280 pET‐28a(+)‐TauRD proteins (Figure S3a) using thioflavin T binding assay and transmission electron microscopy (TEM) examination. […]
For thioflavin T binding assay, TauRD protein (20 μM in final 50 μl) was incubated with tested compounds (1−10 μM) in 150 mM NaCl and 20 mM Tris-HCl, pH 8.0, at 37°C for 48 h to form aggregates. […] Thioflavin T fluorescence intensity of samples was recorded by using a microplate reader (Bio-Tek FLx800), with excitation 420 nm and emission 485 nm filter combination.
Figure S3. TauRD-His proteins and Tau aggregation monitored by thioflavin T fluorescence and TEM. […] TauRD protein (20 μM in 50 μl buffer) was incubated with congo red, licochalcone A, or LM compounds (1−10 μM) at 37°C for 48 h, and aggregation was monitored by measuring thioflavin T fluorescence intensity (n = 3). p values: comparisons between 0 h and 48 h (^###: p < 0.001), wild type versus ΔK280 (^&&&: p < 0.001), or with and without compound addition (**: p < 0.01, ***: p < 0.001). […]

T1 sequence (P10636 with tags, fused parts or gaps isoform P10636-8 DEL280-280): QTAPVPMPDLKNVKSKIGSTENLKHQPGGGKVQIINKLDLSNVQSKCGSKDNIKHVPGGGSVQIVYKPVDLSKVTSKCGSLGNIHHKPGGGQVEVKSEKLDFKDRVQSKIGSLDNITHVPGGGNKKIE

**Q.** With C=CC(C)(C)c1cc(/C=C/C(=O)c2ccc(O)cc2)c(OC)cc1O [licochalcone A, reference compound] as the molecule, how does the IC50 at 3 days ([1]; uninduced Tet-On ∆K280 TauRD-DsRed 293 cells, uninduced 293 cells, 3 days treatment, read-out: IC50 (MTT cytotoxicity)) read?
**A.** Its IC50 at 3 days is 7 µM.

**Q.** What about the IC50 at 7 days ([2]; uninduced retinoic acid‐differentiated SH‐SY5Y cells, 7 days treatment, read-out: IC50 (MTT cytotoxicity)) of the same molecule?
**A.** The IC50 at 7 days was 5.8 µM.

**Q.** Which IC50 at 3 days [1] does the source give for COc1ccc(C(=O)/C=C/c2cc(Br)ccc2O)cc1 [LM‐004] here?
**A.** Its IC50 at 3 days is 6.4 µM.

**Q.** What about the IC50 at 7 days [2] of the same molecule?
**A.** The IC50 at 7 days was 4.8 µM.

**Q.** What about the “ΔK280 TauRD aggregation (thioflavin T fluorescence)” value [3] of the same molecule?
**A.** Its value is 6,758 AU.

**Q.** For O=C(c1ccccc1)c1cc2c(O)cccc2oc1=O [LM‐031, 3‐benzoyl‐5‐hydroxychromen‐2‐one], which IC50 at 3 days [1] is on record?
**A.** Its IC50 at 3 days is 55.9 µM.

**Q.** And the IC50 at 7 days [2]?
**A.** The IC50 at 7 days was 6.8 µM.

**Q.** Which IC50 at 3 days [1] does the source give for Nc1c(/N=N/c2ccc(-c3ccc(/N=N/c4cc(S(=O)(=O)O)c5ccccc5c4N)cc3)cc2)cc(S(=O)(=O)O)c2ccccc12 [congo red, reference compound] here?
**A.** The IC50 at 3 days was 36.4 µM.

**Q.** What about the IC50 at 7 days [2] of the same molecule?
**A.** The IC50 at 7 days was 27.4 µM.

**Q.** And the “ΔK280 TauRD aggregation (thioflavin T fluorescence)” value [3]?
**A.** Its value is 4,774 AU.
